Experimental data as given in US20070191493A1, “Use of n-alkanols as activators of the cftr channel” (priority 2003, published 2007).

Experiments:
CHO-CFTR(-) cells = test: 125I iodide efflux in CHO-CFTR(-) control cells that do not express CFTR; assay type: cell-based, Chinese hamster; settings: octan-1-ol 0.1 to 5 mM, FSK 5 μM, A23187 2 μM
[1] = molecular target: T1, ΔF508 mutated CFTR channel (Homo sapiens, UniProt P13569, DEL508-508); test: iodide efflux in JME/CF15 human bronchial epithelial cells from cystic fibrosis patients; assay type: cell-based; settings: JME/CF15 cells
T1 construct: epithelial cells extracted from respiratory airways of patients suffering from cystic fibrosis (homozygous ΔF508); endogenous in cells; host or cells: JME/CF15 human airway epithelial cells (homozygous ΔF508)
Procedure: The CFTR studies are also carried out on Calu-3 cells (ATCC No. HTB-55), which are human pulmonary epithelial cells endogenously expressing the CFTR channel. These cells are cultured under the same culture conditions as the CHO cells. The study of the mutated CFTR channel is carried out on JME/CF15 cells, which are epithelial cells extracted from respiratory airways of patients suffering from cystic fibrosis (homozygous ΔF508) (Jefferson et al., 1990). These cells therefore express the ΔF508 mutated CFTR channel. These cells are cultured under the same conditions as above, but the culture medium is supplemented with a hormone mixture containing: adenine (180 μM), insulin (5 μg/ml), transferrin (5 μg/ml), hydrocortisone (1.1 μM), triiodothyronine (2 nM), epinephrine (5.5 μM), epidermal growth factor (1.64 nM).
This technique makes it possible to follow the kinetics of exit of the ^125I radioactive iodide. The cells are cultured in 24-well plates with a dilution to 1/10 after passage. On the fourth day of culture, the drugs to be tested are dissolved in solution according to the desired concentration, at 37° C., in medium B, at pH 7.4, containing, in mM: 137 NaCl, 5.36 KCl, 0.8 mM MgCl2, 1.8 mM CaCl2, 5.5 glucose and 10 HEPES-NaOH. The wells are washed 4 times with 500 μl of medium B. The solution is subsequently replaced with 500 μl of loading solution containing 1 μM KI and 0.5 μCi of ^125INa/ml for 30 min. The kinetics of exit of ^125I are determined after having eliminated the loading solution and washed the wells 4 times with 500 μl of medium B. For the ^125I exit kinetics, 500 μl of medium B containing or not containing the molecules to be tested are incubated for 30 sec in the wells and recovered in a hemolysis tube, so as to be replaced with 500 μl of medium B containing or not containing the molecules to be tested. The operation is repeated every 30 s for 2 to 6 min. At the end of the efflux, the intracellular ions are extracted by adding 1 ml of trichloroacetic acid (7.5%) to the cell layer. All the samples are counted in a gamma counter (Kontron). The precipitated proteins are solubilized in 0.1N NaOH and quantified using a calorimetric test.
The tracer contained in the cell layer at the beginning of the efflux is calculated as the sum of the samples and of the extracts counted. The efflux curves are constructed by expressing the percentage of the content remaining in the cell layer (I %) with respect to time. The stimulated or nonstimulated efflux rate constants (k, min^−1) are determined by smoothing the efflux curves to a monoexponential function I %=100*exp(−kt) using a linear regression of the neperian logarithm of the data, k is used to calculate the iodide released into the medium with respect to time. The hypothesis is made that, in the presence of a stimulator, the efflux is the sum of two iodide effluxes occurring in parallel: a basal efflux and a stimulated efflux characterized, respectively, by the constants kb and ks. The total net efflux is then described by the equation It^%=100*(1−exp(−ktt)) where kt is the sum of kb and ks. Finally, ks calculated as kt−kb is used to establish a dose-response relationship for antagonists. The data is expressed as means ±SD, and the t-test is used to determine the significances. […] Y begins at the basal level and progresses to the plateau (Ymax), X is the concentration and the half-effect values (EC are calculated using GraphPad Prism v3.0 (GraphPad software)).

CHO cells = test: ATP-induced calcium response (cellular uncoupling) in CHO cells; assay type: cell-based, Chinese hamster; settings: α-GA 10 to 100 μM, octan-1-ol 1 mM
Procedure: The Ca^2+ measurements are carried out in the presence of fura-2 (impermeant fluorescent probe) which binds […]. The cells are incubated in serum-free DMEM/F12 culture medium in the presence of the permeant form of fura-2 (fura-2/AM, 2.5 μM) for 1 h at 37° C. The cells, placed on the platform of an epifluorescent microscope (Olympus) (20× objective), are perfused with the solutions to be tested (e.g. ATP, octanol). They are sequentially illuminated at 340 nm and 380 nm and the fluorescence emitted (F) is measured at 510 nm. It is detected via a 12-bit CCD camera (Sony) connected to a data processing computer unit (TILL Photonics). The intracellular Ca^2+ concentration [Ca^2+]i is calculated using the Grynckiewicz equation (Grynckiewicz et al., 1985): [Ca^2+]i=Kdi *(R−Rmin/Rmax−R), based on the ratiometric analysis R (340/380 nm) of the fluorescence (TILL Vision); Rmax and Rmin denote the ratio of fluorescence measured in the presence or in the absence of Ca^2+.

T1 sequence (P13569 with tags, fused parts or gaps DEL508-508): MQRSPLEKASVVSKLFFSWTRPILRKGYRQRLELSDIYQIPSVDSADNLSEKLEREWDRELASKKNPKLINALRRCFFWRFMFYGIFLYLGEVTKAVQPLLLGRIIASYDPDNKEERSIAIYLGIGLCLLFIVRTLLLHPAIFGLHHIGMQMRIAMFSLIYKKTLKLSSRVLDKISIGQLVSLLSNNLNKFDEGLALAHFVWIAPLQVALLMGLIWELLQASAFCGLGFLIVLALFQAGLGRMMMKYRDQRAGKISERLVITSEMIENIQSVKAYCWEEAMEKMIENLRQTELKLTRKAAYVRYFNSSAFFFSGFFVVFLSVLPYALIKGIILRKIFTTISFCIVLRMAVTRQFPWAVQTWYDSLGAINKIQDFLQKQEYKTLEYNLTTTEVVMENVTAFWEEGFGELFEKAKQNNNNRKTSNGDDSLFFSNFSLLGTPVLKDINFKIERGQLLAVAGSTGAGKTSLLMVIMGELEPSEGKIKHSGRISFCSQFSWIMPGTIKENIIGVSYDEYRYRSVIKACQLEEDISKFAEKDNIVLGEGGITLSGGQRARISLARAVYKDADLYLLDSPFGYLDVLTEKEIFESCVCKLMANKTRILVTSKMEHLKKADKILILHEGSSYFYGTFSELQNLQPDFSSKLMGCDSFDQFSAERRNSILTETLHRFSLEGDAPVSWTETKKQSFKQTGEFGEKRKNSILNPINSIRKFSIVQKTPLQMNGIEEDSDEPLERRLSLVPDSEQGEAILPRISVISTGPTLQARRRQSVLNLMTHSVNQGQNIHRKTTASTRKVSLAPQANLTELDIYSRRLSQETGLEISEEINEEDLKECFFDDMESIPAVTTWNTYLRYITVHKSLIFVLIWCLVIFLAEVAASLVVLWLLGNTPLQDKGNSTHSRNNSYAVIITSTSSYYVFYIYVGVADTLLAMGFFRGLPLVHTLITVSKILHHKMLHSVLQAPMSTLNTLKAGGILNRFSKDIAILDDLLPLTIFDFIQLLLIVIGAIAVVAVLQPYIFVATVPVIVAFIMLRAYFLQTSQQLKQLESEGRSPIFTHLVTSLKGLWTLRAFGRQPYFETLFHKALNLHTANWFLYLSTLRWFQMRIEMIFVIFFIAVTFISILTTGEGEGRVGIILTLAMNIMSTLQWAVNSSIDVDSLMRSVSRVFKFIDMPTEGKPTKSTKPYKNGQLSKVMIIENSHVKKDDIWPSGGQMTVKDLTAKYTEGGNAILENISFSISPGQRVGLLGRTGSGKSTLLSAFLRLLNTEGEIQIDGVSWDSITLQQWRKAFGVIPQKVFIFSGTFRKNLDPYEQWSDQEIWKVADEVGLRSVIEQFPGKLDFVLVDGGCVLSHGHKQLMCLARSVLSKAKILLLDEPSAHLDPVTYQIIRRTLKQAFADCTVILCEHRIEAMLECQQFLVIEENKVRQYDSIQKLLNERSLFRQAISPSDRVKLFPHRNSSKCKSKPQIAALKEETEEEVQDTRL

effect on the basal level when the mutated channel is not present at the plasma membrane [1]: has no effect on the basal level
activation of mutated CFTR-ΔF508 channel as share of maximum activity (10 μM FSK+30 μM genistein = 100%) ([1]; octan-1-ol 1 mM): approximately 50%
Compound: CCCCCCCCO [octan-1-ol]
effect on basal level of 125I efflux in cells not expressing CFTR (CHO-CFTR(-) cells): do not significantly modify the basal level
activation of ΔF508 mutated CFTR channel, in words ([1]; 1 mM): specifically activates the ΔF508 mutated CFTR channel
cellular uncoupling shown by ATP-induced calcium response (CHO cells): clearly uncouples the cells
